Experimental findings from paper doi:10.1101/2020.10.22.350827v1 (biorxiv, 2020) are described below.

Changes are numbered by the printed parent chain.

Test [1] concerns the target T1, Nluc-A1R (adenosine A1 receptor) L258A (Homo sapiens, UniProt P30542, L258A).
T1 sequence (P30542 1-326 L258A): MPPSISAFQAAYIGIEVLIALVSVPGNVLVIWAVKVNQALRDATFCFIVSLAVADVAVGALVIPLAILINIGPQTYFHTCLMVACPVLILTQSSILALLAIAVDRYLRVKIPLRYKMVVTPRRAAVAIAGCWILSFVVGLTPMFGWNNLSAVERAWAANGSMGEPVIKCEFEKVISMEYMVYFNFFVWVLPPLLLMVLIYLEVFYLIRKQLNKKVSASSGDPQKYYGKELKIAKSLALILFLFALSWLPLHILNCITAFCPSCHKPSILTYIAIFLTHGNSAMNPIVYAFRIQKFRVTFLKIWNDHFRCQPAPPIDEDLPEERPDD
Kind of test: cell-based. Further details: species or system HEK 293.

Test [2] deals with T2, Nluc-A1R (adenosine A1 receptor) S267A (Homo sapiens, UniProt P30542, S267A).
T2 sequence (P30542 1-326 S267A): T1 sequence (P30542 1-326 L258A) with A258L, S267A
Put plainly: cell-based. Further details: species or system HEK 293.

The target in test [3] is T3, Nluc-A1R (adenosine A1 receptor) Q9A (Homo sapiens, UniProt P30542, Q9A).
T3 sequence (P30542 1-326 Q9A): T1 sequence (P30542 1-326 L258A) with Q9A, A258L
Kind of test: cell-based. Also on record: species or system HEK 293.

The target in test [4] is T4, Nluc-A1R (adenosine A1 receptor) N148A (Homo sapiens, UniProt P30542, N148A).
T4 sequence (P30542 1-326 N148A): T1 sequence (P30542 1-326 L258A) with N148A, A258L
Put plainly: cell-based. Further details: species or system HEK 293.

For test [5], the target named is T5, Nluc-A1R (adenosine A1 receptor) K265A (Homo sapiens, UniProt P30542, K265A).
T5 sequence (P30542 1-326 K265A): T1 sequence (P30542 1-326 L258A) with A258L, K265A
Kind of test: cell-based. Also on record: species or system HEK 293.

For test [6], the target named is T6, Nluc-A1R (adenosine A1 receptor) (Homo sapiens, UniProt P30542, I69A).
T6 sequence (P30542 1-326 I69A): T1 sequence (P30542 1-326 L258A) with I69A, A258L
Kind of test: NanoBRET competition binding, live HEK […] cells. It is filed as cell-based.

For test [7], the target named is T7, Nluc-A1R (adenosine A1 receptor) (Homo sapiens, UniProt P30542, T257A).
T7 sequence (P30542 1-326 T257A): T1 sequence (P30542 1-326 L258A) with T257A, A258L
Put plainly: NanoBRET competition binding, live HEK […] cells. It is filed as cell-based. In general terms: Bioluminescence resonance energy transfer reports proximity on the nanometre scale.

In the case of `OC[C@H]1O[C@@H](n2cnc3c(N[C@@H]4CCC[C@H]4O)ncnc32)[C@H](O)[C@@H]1O` [compound 6, HOCPA], the inhibition constant Ki was 1.41 µM in test [1]; 1.02 µM in test [2]; 1.95 µM in test [3]; 0.708 µM in test [4]; 0.977 µM in test [5]; 45.7 µM in test [6]. This compound showed a Ki in test [7] of 0.115 µM.

As usually defined, the Ki is the dissociation constant of the complex between target and ligand, obtained from inhibition or displacement. The low end stands for a stronger hold on the target, the high end for a looser hold on the target.
